The values that follow come from patent US10287267B2, “Isoquinolin-3-yl carboxamides and preparation and use thereof” (Samumed, LLC, priority 2016, dated 2019).

Where two headings read alike, the source gives them in different places.

Assay [1] deals with Tau phosphorylation at Ser396 (pSer396). In words: Tau phosphorylation assay (pSer396 ELISA / western blot) in SH-SY5Y cells.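 Note: EC50 for reduction of Tau pSer396 in lysed cells, measured by colorimetric ELISA or chemiluminescent western blot, both using the same pSer396 antibody.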 It counts as cell-based, human. The note with it: SH-SY5Y cells, overnight (16-18 h) exposure, read-out: pSer396 Tau EC50. A general note: ELISA stands for enzyme-linked immunosorbent assay.
For a further assay, the target named is recombinant GSK3β kinase (Homo sapiens (Human), UniProt P49841). Briefly: GSK3β kinase assay (Ser/Thr 09 peptide Z-lyte FRET).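 Note: kinase activity read as coumarin to fluorescein emission ratio, 11-point threefold dilutions from 10 µM to 0.0003 µM in duplicate, unphosphorylated and phosphorylated peptide as 0% and 100% controls.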 It counts as biochemical. The note with it: 46 μM ATP, 1 h room temperature.
Sequence of recombinant GSK3β kinase (P49841 whole entry): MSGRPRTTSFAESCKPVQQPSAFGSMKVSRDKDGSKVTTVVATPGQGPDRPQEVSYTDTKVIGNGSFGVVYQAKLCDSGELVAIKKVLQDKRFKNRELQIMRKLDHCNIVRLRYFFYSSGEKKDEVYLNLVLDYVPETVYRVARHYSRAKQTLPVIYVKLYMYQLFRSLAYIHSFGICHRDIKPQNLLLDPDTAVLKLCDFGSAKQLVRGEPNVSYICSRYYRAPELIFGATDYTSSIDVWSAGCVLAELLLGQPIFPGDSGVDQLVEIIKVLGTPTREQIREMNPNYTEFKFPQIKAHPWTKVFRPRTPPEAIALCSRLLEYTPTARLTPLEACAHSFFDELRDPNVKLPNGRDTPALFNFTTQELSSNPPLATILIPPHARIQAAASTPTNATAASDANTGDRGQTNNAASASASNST
In assay [2] the test system is SW480 colon carcinoma cells. In words: Cell viability assay (CellTiter-Glo). It counts as cell-based, human. The settings on record: SW480 cells, CellTiter-Glo, four days incubation. On the technique in general: Cellular ATP, detected with luciferase, serves as a proxy for viable cell number.
Assay [3] addresses recombinant DYRK1A kinase (Homo sapiens (Human), UniProt Q13627). Briefly: DYRK1A kinase assay (Ser/Thr 18 peptide Z-lyte FRET).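 Note: Read-out is the coumarin to fluorescein emission ratio, referenced to unphosphorylated (0%) and phosphorylated (100%) Ser/Thr 18 peptide controls, values from dose-response curves by non-linear regression.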 It counts as biochemical. The note with it: 30 μM ATP, 1 h room temperature.
Assay [4] has as its system Wnt pathway (Sp5-Luc reporter, TCF/LEF binding sites) in SW480 colon carcinoma cells. Briefly: Screening assay for Wnt activity: Sp5-Luc reporter gene assay.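 For all read-outs here: firefly luciferase luminescence read in stably transduced SW480 cells carrying the Sp5 promoter reporter with eight TCF/LEF sites, compounds given in 0.1% DMSO final.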 It counts as cell-based, human. The settings on record: for EC50: Sp5-Luc reporter, SW480 cells, 36 to 48 hours. (In a reporter assay the amount or activity of a reporter protein is the signal.)
Method: The screening assay for Wnt activity is described as follows.
Following incubation, 15 μl of BriteLite Plus luminescence reagent (Perkin Elmer) was added to each well of the 384-well assay plates. The plates were placed on an orbital shaker for 2 min and then luminescence was quantified using the Envision (Perkin Elmer) plate reader.
Assay [5] deals with α-smooth muscle actin (αSMA) positive LL29 cells. In words: Inhibition of fibrotic process: αSMA in TGF-β1 treated primary human fibroblasts from IPF patients.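 For all read-outs here: controls were TGF-β1 stimulated wells with DMSO vehicle (positive) and cells given DMSO alone (negative), cultured in F12 medium with 1% fetal bovine serum.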 The note with it: for EC50: Table 8, LL29 fibroblasts from IPF patients, TGF-β1 20 ng/mL, 4 days; for inhibition at 10 µM: read-out: percent value in parentheses beside EC50 >10 μM. It counts as cell-based.
Another assay concerns IL-6. In words: IL-6 inhibition in LPS-stimulated human peripheral blood mononuclear cells (HTRF).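 For all read-outs here: IL-6 detected by HTRF with an XL665- and Cryptate-labelled anti-IL-6 antibody pair, samples run in duplicate, EC50 obtained from a four-parameter Levenberg-Marquardt curve fit.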 It counts as cell-based. The settings on record: for EC50: Table 9, huPBMCs, LPS 50 ng/mL, 22 hours, dose-response starting from 10 μM.
The mark [6] stands for this setting: Homo sapiens, Fibroblast, 96 h, dose-response 10 μM to 0.94 nM.

Broadly, the EC50 is the concentration needed to bring the measured effect to its halfway point.

Method for IL-6: After 22 hour incubation, a mixture of anti-IL6 XL665 and anti-IL-6 Cryptate diluted in reconstitution buffer (Catalog #62IL6PEC, Cisbio Inc., Bedford, Mass.) was added to each well. […] All samples were processed in duplicate. […] EC50 was determined using software generated by Dotmatics Limited (Windhill Bishops Stortford Herts, UK) using the Levenberg-Marquardt 4 parameter fitting procedure with finite different gradients.

For `C[C@H](F)CN1CCC(C(=O)Nc2cc3cc(-c4cnn(C)c4)ccc3cn2)CC1` [Compound 311, (S)-1-(2-Fluoropropyl)-N-(6-(1-methyl-1H-pyrazol-4-yl)isoquinolin-3-yl) piperidine-4-carboxamide], the EC50 in assay [1] was determined as 163 nM; at recombinant GSK3β kinase, 20 nM; in assay [2] it was 751 nM; in assay [3], 1.9 nM; in assay [4], 578 nM; in assay [5] (dose-response 10 μM to […]) it was 76 nM. In the assay with IL-6, this compound had an EC50 of 396 nM.
Consider `Cn1cc(-c2ccc3cnc(NC(=O)C(C)(C)F)cc3c2)nn1` [Compound 312, 2-Fluoro-2-methyl-N-(6-(1-methyl-1H-1,2,3-triazol-4-yl)isoquinolin-3-yl) propanamide], for which the EC50 in assay [1] (Homo sapiens) was 762 nM; on recombinant GSK3β kinase, 31 nM; in assay [2] (Homo sapiens, 96 h), over 10000 nM; in assay [3] it was 12.7 nM; in assay [4] (Homo sapiens) it was over 10000 nM; in assay [5] (setting [6]) it was over 10000 nM. In the assay with IL-6 (Homo sapiens, PBMC), this compound showed an EC50 of over 10000 nM. Also, the inhibition at 10 µM turned out to be 23.8% in assay [4] (Homo sapiens, SW480, read-out: percent inhibition at 10 μM); 36.5% in assay [5] (Homo sapiens, Fibroblast); 3.9% in the assay with IL-6 (Homo sapiens, PBMC, read-out: percent value in parentheses beside EC50 >10 μM).
In the case of `C[C@@H](F)CN1CCC(C(=O)Nc2cc3cc(-c4cnn(C)c4)ccc3cn2)CC1` [Compound 313, (R)-1-(2-Fluoropropyl)-N-(6-(1-methyl-1H-pyrazol-4-yl)isoquinolin-3-yl) piperidine-4-carboxamide], the EC50 in assay [1] (Homo sapiens) worked out at 330 nM; at recombinant GSK3β kinase, 39 nM; in assay [2] (Homo sapiens, 96 h), 711 nM; in assay [3], 2.5 nM; in assay [4] (Homo sapiens), 577 nM; in assay [5] (setting [6]), 105 nM. Moreover, the EC50 in the assay with IL-6 (Homo sapiens, PBMC) is 1010 nM.
For the compound `CC(C(=O)Nc1cc2cc(-c3cnn(C)c3)ccc2cn1)N1CCCCC1` (stereo not shown) [Compound 314, N-(6-(1-Methyl-1H-pyrazol-4-yl)isoquinolin-3-yl)-2-(piperidin-1-yl) propanamide], the EC50 in assay [1] (Homo sapiens) worked out at 128 nM; on recombinant GSK3β kinase, 12 nM; in assay [2] (Homo sapiens, 96 h), 1200 nM; in assay [3] it was 22.1 nM; in assay [4] (Homo sapiens), 859 nM; in assay [5] (setting [6]), 45 nM. The compound also came in with an EC50 with IL-6 (Homo sapiens, PBMC) of 1270 nM.
In the case of `[2H]C1([2H])CCC([2H])([2H])N1CC(=O)Nc1cc2cc(-c3cnn(C)c3)ccc2cn1` [Compound 315, N-(6-(1-Methyl-1H-pyrazol-4-yl)isoquinolin-3-yl)-2-(pyrrolidin-1-yl-2,2,5,5-d4)acetamide], the EC50 in assay [1] (Homo sapiens) was determined as 346 nM; on recombinant GSK3β kinase, 44 nM; in assay [2] (Homo sapiens, 96 h) it was 1250 nM; in assay [3] it was 12.3 nM; in assay [4] (Homo sapiens) it was 1590 nM; in assay [5] (setting [6]), 1820 nM. The EC50 with IL-6 (Homo sapiens, PBMC) is 819 nM.
`CN1CCN(C(=O)Nc2cc3cc(-c4cnn(C)c4)ccc3cn2)CC1` [Compound 316, 4-Methyl-N-(6-(1-methyl-1H-pyrazol-4-yl)isoquinolin-3-yl)piperazine-1-carboxamide]: the EC50 in assay [1] (Homo sapiens) was 8780 nM; on recombinant GSK3β kinase, 509 nM; in assay [2] (Homo sapiens, 96 h), 2340 nM; in assay [3], 4.2 nM; in assay [4] (Homo sapiens) it was 2840 nM; in assay [5] (setting [6]), 1080 nM. The compound further gave an EC50 with IL-6 (Homo sapiens, PBMC) of 395 nM.
For the compound `C[C@@H](C(=O)Nc1cc2cc(-c3cnn(C)c3)ccc2cn1)N1CCCC1` [Compound 317, (S)—N-(6-(1-Methyl-1H-pyrazol-4-yl)isoquinolin-3-yl)-2-(pyrrolidin-1-yl) propanamide], the EC50 in assay [1] (Homo sapiens) came out at 200 nM; on recombinant GSK3β kinase it was 30 nM; in assay [2] (Homo sapiens, 96 h) it was 6340 nM; in assay [3] it was 37 nM; in assay [4] (Homo sapiens) it was 1270 nM; in assay [5] (setting [6]), 174 nM. The compound also gave an EC50 in the assay with IL-6 (Homo sapiens, PBMC) of 1900 nM.
As to `C[C@H](C(=O)Nc1cc2cc(-c3cnn(C)c3)ccc2cn1)N1CCCC1` [Compound 318, (R)—N-(6-(1-Methyl-1H-pyrazol-4-yl)isoquinolin-3-yl)-2-(pyrrolidin-1-yl) propanamide], the EC50 is 72 nM in assay [1] (Homo sapiens); 12 nM on recombinant GSK3β kinase; 940 nM in assay [2] (Homo sapiens, 96 h); 58.8 nM in assay [3]; 442 nM in assay [4] (Homo sapiens); 73 nM in assay [5] (setting [6]). The compound further returned an EC50 with IL-6 (Homo sapiens, PBMC) of 1030 nM.
As for `Cn1cc(-c2ccc3cnc(NC(=O)[C@H]4CCCN4)cc3c2)cn1` [Compound 320, (R)—N-(6-(1-Methyl-1H-pyrazol-4-yl)isoquinolin-3-yl)pyrrolidine-2-carboxamide], the EC50 is 280 nM in assay [1] (Homo sapiens); 10 nM at recombinant GSK3β kinase; 1780 nM in assay [2] (Homo sapiens, 96 h); 9.9 nM in assay [3]; 1140 nM in assay [4] (Homo sapiens); 69 nM in assay [5] (setting [6]). Besides, in the assay with IL-6 (Homo sapiens, PBMC), the EC50 was determined as 1260 nM.
On to `Cn1cc(-c2ccc3cnc(NC(=O)C4CC5(C4)CN(C(=O)C(F)(F)F)C5)cc3c2)cn1` [Compound 325, N-(6-(1-Methyl-1H-pyrazol-4-yl)isoquinolin-3-yl)-2-(2,2,2-trifluoroacetyl)-2-azaspiro[3.3]heptane-6-carboxamide], for which the EC50 in assay [1] (Homo sapiens) came to 440 nM; at recombinant GSK3β kinase it was 3 nM; in assay [2] (Homo sapiens, 96 h), 526 nM; in assay [3], 2.1 nM; in assay [4] (Homo sapiens), 552 nM; in assay [5] (setting [6]), 1300 nM. For the same compound, the EC50 with IL-6 (Homo sapiens, PBMC) is 357 nM.
As to `Cn1cc(-c2ccc3cnc(NC(=O)C4CC5(C4)CN(CCF)C5)cc3c2)cn1` [Compound 326, 2-(2-Fluoroethyl)-N-(6-(1-methyl-1H-pyrazol-4-yl)isoquinolin-3-yl)-2-azaspiro[3.3]heptane-6-carboxamide], the EC50 in assay [1] (Homo sapiens) was 574 nM; at recombinant GSK3β kinase it was 19 nM; in assay [2] (Homo sapiens, 96 h), 400 nM; in assay [3], 2.9 nM; in assay [4] (Homo sapiens), 438 nM; in assay [5] (setting [6]), over 10000 nM. In the assay on IL-6 (Homo sapiens, PBMC), this compound returned an EC50 of 380 nM. For the same compound, the inhibition at 10 µM in assay [5] (Homo sapiens, Fibroblast) worked out at 47.2%.
Turning to `Cn1cc(-c2ccc3cnc(NC(=O)[C@H]4CC[C@H](N(C)C)CC4)cc3c2)cn1` [Compound 327, trans-4-(Dimethylamino)-N-(6-(1-methyl-1H-pyrazol-4-yl)isoquinolin-3-yl)cyclohexane-1-carboxamide], the EC50 in assay [1] (Homo sapiens) was 411 nM; on recombinant GSK3β kinase it was 66 nM; in assay [2] (Homo sapiens, 96 h) it was 1580 nM; in assay [3] it was 1.7 nM; in assay [4] (Homo sapiens), 258 nM; in assay [5] (setting [6]) it was 58 nM. Further, the EC50 in the assay with IL-6 (Homo sapiens, PBMC) is 947 nM.
For `Cn1cc(-c2ccc3cnc(NC(=O)C4CCN(C(=O)c5ccccc5)CC4)cc3c2)cn1` [Compound 328, 1-Benzoyl-N-(6-(1-methyl-1H-pyrazol-4-yl)isoquinolin-3-yl)piperidine-4-carboxamide], the EC50 in assay [1] (Homo sapiens) was 231 nM; at recombinant GSK3β kinase it was 16 nM; in assay [2] (Homo sapiens, 96 h), 929 nM; in assay [3] it was 1.9 nM; in assay [4] (Homo sapiens) it was 804 nM; in assay [5] (setting [6]), over 10000 nM. In addition, the midpoint of the response in the assay on IL-6 (Homo sapiens, PBMC), the EC50, lay at 398 nM. In assay [5] (Homo sapiens, Fibroblast), the inhibition at 10 µM stood at 34.5%.
For the compound `CC(=O)N1CCC(C(=O)Nc2cc3cc(-c4cnn(C)c4)ccc3cn2)CC1` [Compound 329, 1-Acetyl-N-(6-(1-methyl-1H-pyrazol-4-yl)isoquinolin-3-yl)piperidine-4-carboxamide], the EC50 in assay [1] (Homo sapiens) was 524 nM; on recombinant GSK3β kinase it was 29 nM; in assay [2] (Homo sapiens, 96 h), 4120 nM; in assay [3], 2.7 nM; in assay [4] (Homo sapiens), 1170 nM; in assay [5] (setting [6]), 212 nM. In the assay on IL-6 (Homo sapiens, PBMC), the midpoint of the response, the EC50, lay at 1160 nM.
Regarding `CN1CCC(N2CCC(C(=O)Nc3cc4cc(-c5cnn(C)c5)ccc4cn3)CC2)CC1` [Compound 331, 1′-Methyl-N-(6-(1-methyl-1H-pyrazol-4-yl)isoquinolin-3-yl)-[1,4′-bipiperidine]-4-carboxamide], the EC50 in assay [1] (Homo sapiens) turned out to be 311 nM; on recombinant GSK3β kinase it was 55 nM; in assay [2] (Homo sapiens, 96 h), 3120 nM; in assay [3] it was 1.8 nM; in assay [4] (Homo sapiens) it was 2990 nM; in assay [5] (setting [6]), 96 nM. The EC50 in the assay on IL-6 (Homo sapiens, PBMC) turned out to be 882 nM.
Turning to `Cn1cc(-c2ccc3cnc(NC(=O)C4CCN(C5CCOCC5)CC4)cc3c2)cn1` [Compound 332, N-(6-(1-Methyl-1H-pyrazol-4-yl)isoquinolin-3-yl)-1-(tetrahydro-2H-pyran-4-yl)piperidine-4-carboxamide], the EC50 in assay [1] (Homo sapiens) came to 249 nM; at recombinant GSK3β kinase it was 39 nM; in assay [2] (Homo sapiens, 96 h) it was 1000 nM; in assay [3], 3.5 nM; in assay [4] (Homo sapiens) it was 662 nM; in assay [5] (setting [6]) it was 291 nM. In the assay with IL-6 (Homo sapiens, PBMC), this compound gave an EC50 of 1070 nM.
On to `Cn1cc(-c2ccc3cnc(NC(=O)[C@H]4CC[C@H](CO)CC4)cc3c2)cn1` [Compound 333, trans-4-(Hydroxymethyl)-N-(6-(1-methyl-1H-pyrazol-4-yl)isoquinolin-3-yl)cyclohexane-1-carboxamide], for which the EC50 in assay [1] (Homo sapiens) came out at 1100 nM; on recombinant GSK3β kinase it was 60 nM; in assay [2] (Homo sapiens, 96 h), 641 nM; in assay [3], 1.2 nM; in assay [4] (Homo sapiens) it was 384 nM; in assay [5] (setting [6]) it was 61 nM. Moreover, in the assay with IL-6 (Homo sapiens, PBMC), it took 790 nM to reach a half-maximal effect (EC50).
